Results reported in the NIST ThermoML archive (doi:10.1007/s10765-005-5570-x).
Where “and” joins values, the source holds several entries; their conditions need not be identical. Equal entries are not always repeated. ± gives the expanded uncertainty stated by the source.

Legend:
[1] = Liquid
[2] = xn = mol fraction of the nth substance listed; details: 101.33 kPa, Liquid, x2 = 0

ClCCCl [1,2-dichloroethane]
[1]
Details	mass density [kg/m3]
288.15 K, 101.33 kPa	1260.13 ± 0.86
298.15 K, 101.33 kPa	1246.59 ± 0.83
298.15 K, 200 kPa	1245.68 ± 0.6
298.15 K, 500 kPa	1246.02 ± 0.61
298.15 K, 1100 kPa	1246.54 ± 0.63
298.15 K, 2000 kPa	1247.41 ± 0.66
298.15 K, 3100 kPa	1248.51 ± 0.7
298.15 K, 4100 kPa	1249.53 ± 0.74
298.15 K, 5100 kPa	1250.32 ± 0.78
298.15 K, 6100 kPa	1251.22 ± 0.81
298.15 K, 7100 kPa	1252.27 ± 0.85
298.15 K, 8000 kPa	1253.07 ± 0.89
298.15 K, 8900 kPa	1254 ± 0.92
298.15 K, 10100 kPa	1255.18 ± 0.97
298.15 K, 12000 kPa	1256.96 ± 1.1
298.15 K, 13900 kPa	1258.84 ± 1.1
298.15 K, 15700 kPa	1260.48 ± 1.2
298.15 K, 17700 kPa	1262.37 ± 1.3
298.15 K, 19700 kPa	1264.29 ± 1.4
308.15 K, 101.33 kPa	1231.27 ± 0.79

ClCCBr [1-bromo-2-chloroethane]
[1]
Details	mass density [kg/m3]
288.15 K, 101.33 kPa	1744.36 ± 2.6
298.15 K, 101.33 kPa	1727.88 ± 2.6
298.15 K, 200 kPa	1726.08 ± 2.2
298.15 K, 500 kPa	1726.48 ± 2.2
298.15 K, 900 kPa	1726.94 ± 2.2
298.15 K, 2000 kPa	1728.17 ± 2.3
298.15 K, 2900 kPa	1729.14 ± 2.4
298.15 K, 4100 kPa	1730.57 ± 2.5
298.15 K, 4800 kPa	1731.35 ± 2.5
298.15 K, 6000 kPa	1732.77 ± 2.6
298.15 K, 6800 kPa	1733.74 ± 2.7
298.15 K, 8000 kPa	1735.1 ± 2.8
298.15 K, 8700 kPa	1736.13 ± 2.9
298.15 K, 9600 kPa	1737.17 ± 3
298.15 K, 11700 kPa	1739.6 ± 3.2
298.15 K, 13900 kPa	1742.49 ± 3.4
298.15 K, 15600 kPa	1744.52 ± 3.5
298.15 K, 17600 kPa	1747.12 ± 3.8
298.15 K, 19400 kPa	1749.48 ± 4
308.15 K, 101.33 kPa	1708.86 ± 2.5

ClCBr [bromochloromethane]
[1]
Details	mass density [kg/m3]
288.15 K, 101.33 kPa	1945.94 ± 2.6
298.15 K, 101.33 kPa	1924.88 ± 2.5
298.15 K, 200 kPa	1923.54 ± 1.9
298.15 K, 500 kPa	1923.88 ± 1.9
298.15 K, 1000 kPa	1924.64 ± 2
298.15 K, 2100 kPa	1926.24 ± 2.1
298.15 K, 2900 kPa	1927.62 ± 2.2
298.15 K, 3800 kPa	1928.77 ± 2.3
298.15 K, 4900 kPa	1930.51 ± 2.5
298.15 K, 5900 kPa	1932.03 ± 2.6
298.15 K, 7000 kPa	1933.43 ± 2.8
298.15 K, 8000 kPa	1934.88 ± 2.9
298.15 K, 8800 kPa	1936.36 ± 3
298.15 K, 9800 kPa	1937.83 ± 3.2
298.15 K, 11800 kPa	1940.79 ± 3.4
298.15 K, 13900 kPa	1944.25 ± 3.8
298.15 K, 15700 kPa	1947.01 ± 4
298.15 K, 17800 kPa	1950.26 ± 4.3
298.15 K, 19600 kPa	1953.16 ± 4.6
308.15 K, 101.33 kPa	1900.86 ± 2.5

BrCBr [dibromomethane]
[1]
Details	mass density [kg/m3]
288.15 K, 101.33 kPa	2501.88 ± 4.2
298.15 K, 101.33 kPa	2478.37 ± 4.1
298.15 K, 200 kPa	2477.56 ± 3.1
298.15 K, 300 kPa	2477.92 ± 3.1
298.15 K, 600 kPa	2478.35 ± 3.2
298.15 K, 1000 kPa	2478.9 ± 3.2
298.15 K, 2100 kPa	2480.41 ± 3.5
298.15 K, 3000 kPa	2481.88 ± 3.6
298.15 K, 4100 kPa	2483.5 ± 3.9
298.15 K, 5000 kPa	2484.84 ± 4
298.15 K, 5900 kPa	2486.26 ± 4.2
298.15 K, 6900 kPa	2487.82 ± 4.4
298.15 K, 8000 kPa	2489.54 ± 4.7
298.15 K, 8800 kPa	2490.92 ± 4.8
298.15 K, 9800 kPa	2492.58 ± 5.1
298.15 K, 11800 kPa	2494.98 ± 5.5
298.15 K, 13700 kPa	2498.59 ± 5.9
298.15 K, 15800 kPa	2502.33 ± 6.4
298.15 K, 15900 kPa	2502.49 ± 6.4
298.15 K, 17700 kPa	2505.74 ± 6.9
298.15 K, 19200 kPa	2508.69 ± 7.2
298.15 K, 19300 kPa	2508.84 ± 7.2
308.15 K, 101.33 kPa	2451.74 ± 4

CCOC(C)=O [ethyl acetate]
[1]
Details	mass density
288.15 K, 101.33 kPa	906.71 ± 0.47 kg/m3
298.15 K, 101.33 kPa	894.97 ± 0.49 kg/m3
298.15 K, 200 kPa	894.2 ± 0.37 kg/m3
298.15 K, 600 kPa	894.65 ± 0.37 kg/m3
298.15 K, 1100 kPa	895.18 ± 0.38 kg/m3
298.15 K, 2100 kPa	896.14 ± 0.39 kg/m3
298.15 K, 2900 kPa	897.1 ± 0.4 kg/m3
298.15 K, 4000 kPa	898.2 ± 0.41 kg/m3
298.15 K, 5100 kPa	899.22 ± 0.43 kg/m3
298.15 K, 6000 kPa	900.19 ± 0.44 kg/m3
298.15 K, 7000 kPa	901.11 ± 0.45 kg/m3
298.15 K, 8000 kPa	902.12 ± 0.46 kg/m3
298.15 K, 8900 kPa	902.88 ± 0.47 kg/m3
298.15 K, 9900 kPa	903.88 ± 0.48 kg/m3
298.15 K, 11700 kPa	905.54 ± 0.5 kg/m3
298.15 K, 13800 kPa	907.54 ± 0.52 kg/m3
298.15 K, 16000 kPa	909.45 ± 0.54 kg/m3
298.15 K, 17600 kPa	910.84 ± 0.56 kg/m3
298.15 K, 19500 kPa	912.59 ± 0.57 kg/m3
308.15 K, 101.33 kPa	882.27 ± 0.51 kg/m3 and 881.87 ± 0.51 kg/m3

CCOC(C)=O [ethyl acetate] + BrCBr
[2]
Details	mass density [kg/m3]
288.15 K	906.71 ± 0.47
298.15 K	894.97 ± 0.49
308.15 K	882.27 ± 0.51

CCOC(C)=O [ethyl acetate] + ClCBr
[2]
Details	mass density [kg/m3]
288.15 K	906.71 ± 0.47
298.15 K	894.97 ± 0.49
308.15 K	881.87 ± 0.51

CCOC(C)=O [ethyl acetate] + ClCCBr
[2]
Details	mass density [kg/m3]
288.15 K	906.71 ± 0.47
298.15 K	894.97 ± 0.49
308.15 K	882.27 ± 0.51

CCOC(C)=O [ethyl acetate] + ClCCCl
[2]
Details	mass density [kg/m3]
288.15 K	906.71 ± 0.47
298.15 K	894.97 ± 0.49
308.15 K	882.27 ± 0.51
